The values below are quoted from earlier work in publication PMC7395068, “The evolution of strategies to minimise the risk of human drug-induced liver injury (DILI) in drug discovery and development” (Archives of Toxicology, 2020).

Where a name gives a salt, the structure may show the parent alone. Read-outs that look alike come from different tables or passages of the source.

For the data set the following is noted: cited from earlier work.
The mark [1] stands for this setting: binary in vivo DILI call given beside the severity category, ref Chen 2016.
[2] abbreviates: human DILI concern category (LTKB DILIrank), ref Chen 2016.
Where [3] appears, read: binary in vivo human DILI call, ref Chen 2016.
The mark [4] stands for this setting: human DILI, LTKB DILIrank category, ref Chen 2016.
Where [5] appears, read: LTKB DILIrank category, ref Chen 2016.
[6] abbreviates: binary DILI call, ref Chen 2016.
Where [7] appears, read: binary human DILI assignment, ref Chen 2016.

As for `COc1cc(NCc2ccc3nc(N)nc(N)c3c2C)cc(OC)c1OC` [trimetrexate], the “DILI +VE (5-8), DILI -VE (-4)” value under setting [1] was “-VE”. In addition, the DILI severity category entry under setting [2] was “Ambiguous DILI-concern”.
As to `C[n+]1ccccc1/C=N/O` [pralidoxime], under setting [1], the “DILI +VE (5-8), DILI -VE (-4)” value was “-VE”. Besides, the DILI severity category result under setting [2] is listed as “Ambiguous DILI-concern”.
Regarding ferumoxytol, under “in vivo”, the “DILI +VE (5-8), DILI -VE (-4)” value was “-VE” and the DILI severity category result was “vNo-DILI-Concern”.
Turning to `Cc1nccn1CC1CCc2c(c3ccccc3n2C)C1=O` (stereo not shown) [ondansetron], the “DILI +VE (5-8), DILI -VE (-4)” value under setting [1] is “+VE”. Further, the DILI severity category result under setting [2] is “vLess-DILI-Concern”.
Take gemtuzumab ozogamicin: the “DILI +VE (5-8), DILI -VE (-4)” value under setting [3] is on record as “+VE”. The DILI severity category result under setting [4] was “vMost-DILI-Concern”.
`O=C(O)COC(=O)Cc1ccccc1Nc1c(Cl)cccc1Cl` [aceclofenac]: where the note is “in vivo”, the “DILI +VE (5-8), DILI -VE (-4)” value is on record as “+VE” and the DILI severity category entry is on record as “vLess-DILI-Concern”.
Turning to `CCCC(C)(COC(N)=O)COC(N)=O` [meprobamate], the “DILI +VE (5-8), DILI -VE (-4)” value under setting [3] was “-VE”. Under setting [4], the DILI severity category result is listed as “vNo-DILI-Concern”.
Take `CCCN[C@H]1CCc2nc(N)sc2C1` [pramipexole]: the “DILI +VE (5-8), DILI -VE (-4)” value under setting [1] is given as “-VE”. Also, the DILI severity category entry under setting [2] is “Ambiguous DILI-concern”.
In the case of `NCCCNCCSP(=O)(O)O` [amifostine], the DILI severity category entry under setting [5] is “vNo-DILI-Concern”. Moreover, the “DILI +VE (5-8), DILI -VE (-4)” value under setting [6] was “-VE”.
For `Cc1onc(-c2ccccc2)c1C(=O)N[C@@H]1C(=O)N2[C@@H]1SC(C)(C)[C@@H]2C(=O)O` [oxacillin], under setting [1], the “DILI +VE (5-8), DILI -VE (-4)” value is given as “+VE”. Also, the DILI severity category result under setting [2] was “vLess-DILI-Concern”.
In the case of `O=C1CCC(N2C(=O)c3ccccc3C2=O)C(=O)N1` (stereo not shown) [thalidomide], the “DILI +VE (5-8), DILI -VE (-4)” value under setting [1] is given as “+VE”. Under setting [2], the DILI severity category result was “vLess-DILI-Concern”.
With `CNS(=O)(=O)CCc1ccc2[nH]cc(C3CCN(C)CC3)c2c1` [naratriptan], the “DILI +VE (5-8), DILI -VE (-4)” value under setting [1] is “-VE”. For the same molecule, the DILI severity category entry under setting [2] is reported as “Ambiguous DILI-concern”.
On to `CN1C(CSCC(F)(F)F)Nc2cc(Cl)c(S(N)(=O)=O)cc2S1(=O)=O` (stereo not shown) [polythiazide], for which the “DILI +VE (5-8), DILI -VE (-4)” value under setting [1] is reported as “-VE”. Under setting [2], the DILI severity category entry was “Ambiguous DILI-concern”.
With bleomycin, under setting [5], the DILI severity category entry is listed as “Ambiguous DILI-concern”. The “DILI +VE (5-8), DILI -VE (-4)” value under setting [6] is “-VE”.
In the case of `CC[N+](CC)(CCNC(=O)C(=O)NCC[N+](CC)(CC)Cc1ccccc1Cl)Cc1ccccc1Cl` [ambenonium], where the note is “in vivo”, the “DILI +VE (5-8), DILI -VE (-4)” value is reported as “-VE” and the DILI severity category result is reported as “vNo-DILI-Concern”.
Regarding certolizumab pegol, where the note is “in vivo”, the “DILI +VE (5-8), DILI -VE (-4)” value is “-VE” and the DILI severity category entry was “Ambiguous DILI-concern”.
Regarding `O=P(O)(O)C(O)(Cn1ccnc1)P(=O)(O)O` [zoledronate], under setting [5], the DILI severity category entry was “vLess-DILI-Concern”. Also, the “DILI +VE (5-8), DILI -VE (-4)” value under setting [7] is recorded as “+VE”.
As to `O=C(O)CCNC(=O)c1ccc(/N=N/c2ccc(O)c(C(=O)O)c2)cc1` [balsalazide], the DILI severity category entry under setting [5] is “Ambiguous DILI-concern”. The “DILI +VE (5-8), DILI -VE (-4)” value under setting [6] is given as “-VE”.
`CC(C)(Oc1ccc(C(=O)c2ccc(Cl)cc2)cc1)C(=O)O` [fenofibric acid]: the “DILI +VE (5-8), DILI -VE (-4)” value under setting [3] is recorded as “-VE”. Also, under setting [4], the DILI severity category entry is reported as “Ambiguous DILI-concern”.
On to `O=NN(CCCl)C(=O)NC1CCCCC1` [lomustine], for which, under “in vivo”, the “DILI +VE (5-8), DILI -VE (-4)” value is given as “+VE” and the DILI severity category entry was “vLess-DILI-Concern”.
As for `NCCS` [cysteamine], the “DILI +VE (5-8), DILI -VE (-4)” value under setting [3] is recorded as “-VE”. For the same molecule, the DILI severity category entry under setting [4] is on record as “Ambiguous DILI-concern”.
For the molecule `N[C@@H](C(=O)N[C@@H]1C(=O)N2C(C(=O)O)=C(Cl)CC[C@H]12)c1ccccc1` [loracarbef], under “in vivo”, the “DILI +VE (5-8), DILI -VE (-4)” value is recorded as “+VE” and the DILI severity category entry was “vLess-DILI-Concern”.
With `OCC(S)CS` (stereo not shown) [dimercaprol], under setting [3], the “DILI +VE (5-8), DILI -VE (-4)” value is listed as “-VE”. Besides, the DILI severity category result under setting [4] was “vNo-DILI-Concern”.
Turning to `NCCc1ccc(O)cc1` [tyramine], the DILI severity category entry under setting [5] is listed as “vNo-DILI-Concern”. The “DILI +VE (5-8), DILI -VE (-4)” value under setting [7] was “-VE”.
Regarding `C[C@H](N)Cc1ccccc1` [dextroamphetamine], under “in vivo”, the “DILI +VE (5-8), DILI -VE (-4)” value was “-VE” and the DILI severity category entry is given as “vNo-DILI-Concern”.
With `Nc1ccc(S(=O)(=O)Nc2ncccn2)cc1` [sulfadiazine], the “DILI +VE (5-8), DILI -VE (-4)” value under setting [1] was “+VE”. Further, under setting [2], the DILI severity category result is “vLess-DILI-Concern”.
With `Cc1cc(Br)c(O)c2ncccc12` [tilbroquinol], the “DILI +VE (5-8), DILI -VE (-4)” value under setting [1] is on record as “+VE”. In addition, the DILI severity category result under setting [2] was “vMost-DILI-Concern”.
Turning to `CC(C)c1cccc(C(C)C)c1O` [propofol], under “in vivo”, the “DILI +VE (5-8), DILI -VE (-4)” value is “+VE” and the DILI severity category entry is “vLess-DILI-Concern”.
With `C[N+](C)(C)CCOC(=O)CCC(=O)OCC[N+](C)(C)C` [succinylcholine], under setting [1], the “DILI +VE (5-8), DILI -VE (-4)” value is on record as “-VE”. The DILI severity category entry under setting [2] is given as “vNo-DILI-Concern”.
For triptorelin pamoate, where the note is “in vivo”, the “DILI +VE (5-8), DILI -VE (-4)” value is “+VE” and the DILI severity category result was “vLess-DILI-Concern”.
For aldesleukin, for the setting “in vivo”, the “DILI +VE (5-8), DILI -VE (-4)” value was “-VE” and the DILI severity category result was “Ambiguous DILI-concern”.
As for `O=C1O[C@H]([C@@H](O)CO)C(O)=C1O` [vitamin c], the DILI severity category entry under setting [5] is “vNo-DILI-Concern”. In addition, the “DILI +VE (5-8), DILI -VE (-4)” value under setting [7] is reported as “-VE”.
In the case of `COc1cccc2c1C(=O)c1c(O)c3c(c(O)c1C2=O)C[C@@](O)(C(=O)CO)C[C@@H]3O[C@H]1C[C@H](N)[C@@H](O)[C@H](C)O1` [epirubicin], the “DILI +VE (5-8), DILI -VE (-4)” value under setting [3] is reported as “-VE”. Moreover, under setting [4], the DILI severity category result was “Ambiguous DILI-concern”.
For the molecule `O=C(O[C@H]1C[C@H]2CC[C@@H](C1)[N+]21CCCC1)C(O)(c1ccccc1)c1ccccc1` [trospium], under setting [5], the DILI severity category entry is “vNo-DILI-Concern”. Further, the “DILI +VE (5-8), DILI -VE (-4)” value under setting [7] is given as “-VE”.
In the case of `CCCCC[C@](C)(O)/C=C/[C@@H]1[C@@H](C/C=C\CCCC(=O)O)[C@@H](O)C[C@H]1O` [carboprost tromethamine], under setting [5], the DILI severity category result was “vNo-DILI-Concern”. Moreover, under setting [6], the “DILI +VE (5-8), DILI -VE (-4)” value is listed as “-VE”.
In the case of `COc1ccc2c3c1O[C@H]1[C@@H](O)C=C[C@H]4[C@@H](C2)N(C)CC[C@@]341` [codeine], for the setting “in vivo”, the “DILI +VE (5-8), DILI -VE (-4)” value is recorded as “-VE” and the DILI severity category entry was “vNo-DILI-Concern”.
For the molecule `Nc1nc(=O)c2c([nH]1)NC[C@H](CNc1ccc(C(=O)N[C@@H](CCC(=O)O)C(=O)O)cc1)N2C=O` [Levoleucovorin], under “in vivo”, the “DILI +VE (5-8), DILI -VE (-4)” value was “-VE” and the DILI severity category entry is on record as “vNo-DILI-Concern”.
Take ferumoxides: under “in vivo”, the “DILI +VE (5-8), DILI -VE (-4)” value is “-VE” and the DILI severity category result is reported as “vNo-DILI-Concern”.
Consider `Nc1ccc(C(=O)NCC(=O)O)cc1` [aminohippurate], for which, where the note is “in vivo”, the “DILI +VE (5-8), DILI -VE (-4)” value was “-VE” and the DILI severity category entry is listed as “vNo-DILI-Concern”.
For `C[C@H](N)C(=O)N[C@@H](C)C(=O)N[C@H]1[C@@H]2CN(c3nc4c(cc3F)c(=O)c(C(=O)O)cn4-c3ccc(F)cc3F)C[C@@H]21` [alatrofloxacin mesylate], under setting [5], the DILI severity category entry is on record as “vMost-DILI-Concern”.
